{
  "source": "paper PMC7004151",
  "about": "“Synthesis and Structure‐Activity Relationships of N‐(4‐Benzamidino)‐Oxazolidinones: Potent and Selective Inhibitors of Kallikrein‐Related Peptidase 6” (Chemmedchem, 2019)",
  "key": {"[1]": {"biological_target": "T1, KLK8 (Homo sapiens, UniProt O60259)", "T1 construct": "purchased 2B scientific", "T1 sequence (O60259 33-260)": "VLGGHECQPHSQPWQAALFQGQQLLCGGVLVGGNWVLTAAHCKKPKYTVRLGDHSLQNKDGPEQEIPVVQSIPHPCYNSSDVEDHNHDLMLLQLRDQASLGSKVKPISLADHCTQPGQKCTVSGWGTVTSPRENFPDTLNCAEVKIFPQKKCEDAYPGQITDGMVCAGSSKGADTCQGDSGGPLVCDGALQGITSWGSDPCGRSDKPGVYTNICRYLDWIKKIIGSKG", "assay": "KLK8 enzyme inhibition assay", "type": "biochemical", "details": "read-out: KLK8 pIC50 (converted)", "method": "Enzyme inhibition assays: All chemicals were purchased from Sigma Aldrich (Gillingham, UK) unless otherwise stated. All experiments were conducted in 384 well black, low volume microplates (Greiner 784076) with a final volume of 20 μL and compounds were dispensed into assay plates using an ECHO 550 acoustic dispenser (Labcyte). KLK6 (5 nM) (prepared as in ref. 21) was incubated with test compounds for 30 min at room temperature in assay buffer (50 mM Tris, pH 7.5, 150 mM NaCl, 1 mM EDTA, 0.05 % tween 20, 0.1 % bovine serum albumin (BSA), 1 mM dithiothreitol (DTT)) before the reaction was started by addition of 20 μM Boc‐Phe‐Ser‐Arg‐AMC substrate (Bachem). Fluorescence intensity was read at ex/em 355/460 following incubation for 2 h in the dark at room temperature.\nAssays using KLK7 and KLK8 (2B scientific) were conducted in the same manner as for KLK6 with the following exceptions. Both KLK7 and KLK8 required activation before assaying. KLK7 was combined with an equal volume of 20 μg/ml thermolysin (R&D systems) in activation buffer (50 mM Tris, pH 7.5, 10 mM CaCl2, 150 mM NaCl and 0.05 % Brij‐L23) and incubated at 37 °C for 2 h, the reaction was stopped with the addition of 100 mM EDTA in stop solution (50 mM Tris, 150 mM NaCl, pH 8.5). KLK8 was combined with an equal volume of 0.4 mU/mL lysyl endopeptidase (Alpha laboratories) in activation buffer (50 mM Tris, pH 8.0) and incubated at 37 °C for 30 min. Activated KLK7 (40 nM) and KLK8 (25 nM) were assayed with 40 μM Mca‐RPKPVE‐Nval‐WRK(Dnp)‐NH2 fluorogenic MMP substrate (R&D systems) and 25 μM Boc‐V‐P‐R‐AMC substrate (R&D systems), respectively."}, "[2]": {"biological_target": "T2, Human trypsin (Homo sapiens, UniProt P07477)", "T2 construct": "purchased Polymun Scientific", "assay": "Trypsin enzyme inhibition assay", "type": "biochemical", "details": "read-out: Trypsin pIC50 (converted)", "method": "Human thrombin was purchased from Biopur. Human trypsin was purchased from Polymun Scientific. Human Factor Xa was purchased from Enzo Life Sciences. […] Fluorescence intensity was then read at ex/em 485/535 following incubation for 1 h at room temperature (thrombin and factor Xa) or 20 min (trypsin)."}, "[3]": {"assay": "Microsomal intrinsic clearance, mouse liver microsomes", "type": "in vitro ADME", "method": "Immediately, at time zero, then at 3, 6, 9, 15 and 30 min an aliquot (50 μL) of the incubation mixture was removed and mixed with acetonitrile (100 μL) to stop the reaction. Internal standard was added to all samples, the samples centrifuged to sediment precipitated protein and the plates then sealed prior to UPLC‐MS/MS analysis using a Quattro Premier XE (Waters Corporation, USA). XLfit (IDBS, UK) was used to calculate the exponential decay and consequently the rate constant (k) from the ratio of peak area of test compound to internal standard at each timepoint. The rate of intrinsic clearance (CLint) of each test compound was then calculated using the following calculation: CLint (mL/min/g liver)=k×V×Microsomal protein yield. Where V (mL/mg protein) is the incubation volume/mg protein added and microsomal protein yield is taken as 52.5 mg protein/g liver. Verapamil (0.5 μM) was used as a positive control to confirm acceptable assay performance."}, "[4]": {"tested_on": "HCT116 cells", "assay": "HCT116 Matrigel invasion assay", "type": "cell-based", "details": "after 24 h; 9 at multiple concentrations; 32 at 50 nM and 500 nM", "method": "Figure 5 HCT116 cells were treated with 9 or 32 at the indicated concentrations and plated on Matrigel®‐coated filters. The upper chamber contained serum‐free medium, while the lower chamber contained 10 % fetal bovine serum. After 24 h, the number of invading cells was measured optically. (A) This figure is one representative example of four biological replicates, each with similar outcomes. Error bars are SEM. Technical replicates: DMSO and 9 at 5 nM (n=3); 9 at 50 and 500 nM and 32 at all concentrations (n=6). Statistical significance was calculated using an unpaired two‐tailed t‐test. n.s=p≥0.05; **=p<0.01; ***=p<0.001. (B) Representative images (Scale bar, […]) of stained invaded cells outside of the inserts 24 h hours after treatment with 9, 32, or DMSO solvent control at the indicated concentrations. Phase contrast images were taken with EVOS FL Cell imagine system FL Auto microscope (Bio‐Rad).\nInvasion assay: The HCT116 colorectal adenocarcinoma cell line (ATCC® CCL‐247™) was maintained in Dulbecco's Modified Eagle Medium (DMEM) with […] glucose, L‐glutamine w/o sodium pyruvate, supplemented with 10 % FBS and 1 % penicillin/streptomycin. […] The samples were transferred to a new 96 well plate and read at 560 nm on a Synergy 2 Multi‐Detection Microplate Reader (Bio‐Tek Instruments, Inc., Winooski, VT)."}},
  "data": [
    {"smiles": "CC[C@H](NC(=O)[C@H]1CN(c2ccc(C(=N)N)cc2)C(=O)O1)c1cccc2ccccc12", "note": "[Compound 32, (5R)‐3‐(4‐carbamimidoylphenyl)‐N‐((S)‐1‐(naphthalen‐1‐yl)propyl)‐2‐oxooxazolidine‐5‐carboxamide]", "values": [
      {"measurement": "IC50", "setting": "[1]", "result": 200, "unit": "nM"},
      {"measurement": "IC50", "setting": "[2]", "result": 63.1, "unit": "nM"},
      {"measurement": "Mouse CLint", "setting": "[3]", "result": 2.4, "unit": "mL/min/g"},
      {"measurement": "invasion of HCT116 cells", "setting": "[4]", "result": "significant reduction in invasion"}
    ]}
  ]
}
